From ChEMBL document CHEMBL1136525, “6,7-dihydroxyisoquinoline-3-carboxylic acids are potent inhibitors on the binding of insulin-like growth factor (IGF) to IGF-binding proteins: optimization of the 1-position benzoyl side chain” (Bioorg Med Chem Lett, 2003)

Each compound was assayed against Insulin-like growth factor-binding protein 3 (Homo sapiens, UniProt P17936) (assay: Ability to displace Insulin-Like Growth Factor (IGF-I) from its binding to human insulin-like growth factor binding protein 3 (hIGFBP-3)).
Sequence of Insulin-like growth factor-binding protein 3 (P17936 whole entry): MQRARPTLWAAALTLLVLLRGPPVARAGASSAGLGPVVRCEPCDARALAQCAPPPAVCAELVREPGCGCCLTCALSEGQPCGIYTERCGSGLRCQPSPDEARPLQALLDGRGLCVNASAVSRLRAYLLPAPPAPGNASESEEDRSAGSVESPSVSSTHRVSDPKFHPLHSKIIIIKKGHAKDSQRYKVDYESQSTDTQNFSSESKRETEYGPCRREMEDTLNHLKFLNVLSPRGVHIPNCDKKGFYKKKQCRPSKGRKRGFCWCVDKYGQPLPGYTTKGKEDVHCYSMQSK

Structure (SMILES)	Ki [µM]
O=C(O)c1cc2cc(O)c(O)cc2c(C(=O)c2ccc(Oc3cc(Cl)cc(Cl)c3)c(F)c2)n1	0.009
O=C(O)c1cc2cc(O)c(O)cc2c(C(=O)c2ccc(Oc3ccc(Cl)c(Cl)c3)c(F)c2)n1	0.012
O=C(O)c1cc2cc(O)c(O)cc2c(Cc2ccc3c(c2)OCO3)n1	0.072
CS(=O)(=O)Nc1cc2cc(C(=O)O)nc(C(=O)c3ccc4c(c3)OCO4)c2cc1O	> 10
O=C(O)c1cc2cc(O)c(O)cc2c(C(=O)c2ccc(Oc3cccc(Cl)c3)c(F)c2)n1	0.011
O=C(O)c1cc2cc(O)c(O)cc2c(C(=O)c2ccc(Sc3ccc(Cl)cc3)c(F)c2)n1	0.031
Cc1cc(C)c(C(=O)c2nc(C(=O)O)cc3cc(O)c(O)cc23)c(C)c1	0.1
Cc1ccc(Oc2ccc(C(=O)c3nc(C(=O)O)cc4cc(O)c(O)cc34)cc2F)cc1	0.0094
O=C(O)c1cc2cc(O)c(O)cc2c(C(=O)c2ccc(Oc3ccc(-c4ccccc4)cc3)c(F)c2)n1	0.032
O=C(O)c1cc2cc(O)c(O)cc2c(C(=O)c2ccc(C(F)(F)F)cc2)n1	0.038
O=C(O)c1cc2cc(O)c(O)cc2c(C(=O)c2ccc(Oc3ccc(C(F)(F)F)cc3)c(F)c2)n1	0.032
O=C(O)c1cc2cc(O)c(O)cc2c(C(=O)c2ccc([N+](=O)[O-])cc2)n1	0.032
Nc1cc2cc(C(=O)O)nc(C(=O)c3ccc(O)c(O)c3)c2cc1O	0.06
O=C(O)c1cc2cc(O)c(O)cc2c(C(=O)c2ccc(Oc3ccc(Cl)cc3)c(F)c2)n1	0.02
CCCCC(CC)CNc1ccc(C(=O)c2nc(C(=O)O)cc3cc(O)c(O)cc23)cc1F (configuration not stated)	0.062
Nc1cc2cc(C(=O)O)nc(C(=O)c3ccc4c(c3)OCO4)c2cc1O	0.85
CS(=O)(=O)Nc1ccc(C(=O)c2nc(C(=O)O)cc3cc(O)c(O)cc23)cc1	0.11

Continued, values first:

Ki [µM]	Structure (SMILES)
0.032	O=C(O)c1cc2cc(O)c(O)cc2c(C(O)c2ccc(Oc3ccccc3)cc2)n1 (configuration not stated)
0.13	Nc1ccc(C(=O)c2nc(C(=O)O)cc3cc(O)c(O)cc23)cc1
0.051	O=C(O)c1cc2cc(O)c(O)cc2c(C(=O)c2ccc(F)c(F)c2)n1
0.011	Cc1cc(C)c(C(O)c2nc(C(=O)O)cc3cc(O)c(O)cc23)c(C)c1 (configuration not stated)
0.029	O=C(O)c1cc2cc(O)c(O)cc2c(C(=O)c2ccc(Cl)c(Cl)c2)n1
0.024	O=C(O)c1cc2cc(O)c(O)cc2c(C(O)c2cccc(F)c2)n1 (configuration not stated)
0.025	O=C(O)c1cc2cc(O)c(O)cc2c(C(O)c2ccccc2Cl)n1 (configuration not stated)
0.11	O=C(O)c1cc2cc(O)c(O)cc2c(C(=O)c2cccc(F)c2)n1
0.11	O=C(O)c1cc2cc(O)c(O)cc2c(C(=O)c2ccccc2Cl)n1
0.018	O=C(O)c1cc2cc(O)c(O)cc2c(C(O)c2ccc(C(F)(F)F)cc2)n1 (configuration not stated)
